The values that follow come from patent US20220118124A1, “R[…]-LABELED, PHOTO-CRO[…], AND PREPARATION METHOD THEREFOR” (SNVIA CO., LTD., priority 2019, published 2022).

Structures are written as SMILES.

The nature of the series: In vivo local retention experiment of ^131I-HAMA microgel (SPECT gamma imaging after injection into femoral muscle). The settings on record: rat. The protocol:
An experiment was performed to confirm the distribution of ^131I and how long the ^131I-HAMA microgel was maintained at the site injected into the body. After injecting 0.2 mL of a solution of Na^131I and ^131I-HAMA microgel (1 mCi/mL) dispersed in PBS into the femoral muscle of the rat, gamma images were obtained over time with the SPECT imaging system (Infinia Hawkeye 4, GE Healthcare, USA). Within 30 minutes immediately after injection, the radioactivity at the injection site was measured with a counter per second in a dynamic mode. After 30 minutes, an image of the whole rat injected with ^131I over time was obtained in static mode, and gamma counters of major tissues such as the injection site, thyroid gland and stomach were measured.

For the molecule `[131I-].[Na+]` [^131I solution, Na^131I], where the note is “after injection into femoral muscle”, the “radiation intensity over time in vivo” value is “decreased rapidly”. The “time to flow to the whole body (SPECT image)” value (intramuscular injection, 200 μCi) came out at 30 min. Further, where the note is “within 30 minutes after injection”, the “spreading rate in the body from the injection site (dynamic imaging)” value is “faster than that of the ^131I-HAMA microgel”. Moreover, the “migration of ^131I to other tissues (gamma counts)” value (injection site, thyroid gland, stomach, bladder) is “measured in the thyroid gland, stomach, and bladder in addition to the injection site”.
